pIC50: −log10 of the molar value. Values after ≈ are worked out from the molar mass of the structure shown. “Also recorded” adds a separate entry of the source.
What was measured:
[1] = HaCaT cytotoxicity assay (LDH); format: cell-based; conditions: human, HaCaT keratinocyte cells, read-out: IC50 for cytotoxicity to HaCaTs
Experimental: The HaCaT cell line was maintained and cytotoxicity of compounds (1-3) were assessed using the LDH cytotoxicity assay as previously described. The Therapeutic Index (TI) was calculated as a ratio of the TD50 (Toxic dose for cytotoxicity at IC50) and ED50 (effective dose for quorum sensing inhibiton IC50): = TD50/ED50 . Cytotoxicity of supernatants was further evaluated using a viability/cytotoxicity assay and imaged with fluorescent microscopy as previously described. All tests were performed in triplicate and the full experiment was repeated on a separate day using fresh cell stock.

[2] = test system: S. aureus AH1747 (agr III); assay: Broth microdilution growth inhibition (MIC); format: cell-based, Staphylococcus aureus; conditions: for pIC50: ≥50% growth inhibition; for pIC50 / MIC: ND = not detected at 4–563 μM; for MIC: ≥90% growth inhibition
Experimental: (§1) Fraction 430F-F5 and isolated compounds of S. terebinthifolia 1-3, were evaluated for minimum inhibitory concentrations (MICs) against the four agr groups, the biofilm test strain (UAMS-1) and NRS249 (for δ-toxin quantification experiments) following the Clinical Laboratory Standards Institute (CLSI) M100-S23 guidelines for microtiter broth dilution testing. Fraction, compounds 1-3 and vehicle were tested at a concentration range of 4 to 563 μM, using 2-fold serial dilution. The optical density (OD600nm) was measured with a BioTek Cytation 3 multimode plate reader, to calculate percent inhibition of growth. […] Control included the vehicle (DMSO) and antibiotic (Ampicillin, MP Biomedicals Inc). All tests were performed in triplicate and repeated using a new stock of bacteria on a separate day.

S. aureus UAMS-1 = assay: Broth microdilution growth inhibition (MIC); format: cell-based, Staphylococcus aureus; conditions: ND = not detected at 4–563 μM; for pIC50: UAMS1, ≥50% growth inhibition
Experimental: as §1

[3] = test system: S. aureus AH1263; LAC (agr I); assay: Broth microdilution growth inhibition (MIC); format: cell-based, Staphylococcus aureus; conditions: for pIC50: read-out: IC50 (growth)
Experimental: as §1

[4] = test system: agr activity, AH430 (agr II); assay: microbe, parasite or virus in culture; format: cell-based; conditions: Staphylococcus aureus, 24 h; for pIC50: read-out: IC50 for quorum sensing inhibitory activity; for IC90: read-out: IC90 for quorum sensing inhibitory activity
Experimental: (§2) S. aureus agr reporter strains AH1677 (agr I), AH430 (agr II), AH1747 (agr III) and AH1872 (agr IV) were grown overnight in TSB supplemented with chloramphenicol at 37 °C while shaking at 200 rpm. Cultures of S. aureus were standardized by optical density (OD600nm) matching to a 0.5 McFarland standard to reach a final inoculum density in the wells of 5 × 10^5 CFU mL^−1 in TSB, supplemented with 10 μg/mL chloramphenicol. […] Black sided, 96-well, clear bottom, tissue-culture treated plates (Costar 3603) with final well volume of 200 μL were used for all agr inhibition assays. Plates were incubated in a humidified chamber at 37 °C while shaking at 260 rpm. After 24 hours, plates were removed and OD600 and fluorescence were measured by plate reader at an excitation of 493 nm and emission of 535 nm. All tests were performed in triplicate and repeated using a new stock of bacteria on a separate day.

[5] = test system: agr activity, AH1677 (agr I); assay: microbe, parasite or virus in culture; format: cell-based; conditions: Staphylococcus aureus, 24 h, read-out: IC50 for quorum sensing inhibitory activity
Experimental: as §2

[6] = test system: agr activity, AH1747 (agr III); assay: microbe, parasite or virus in culture; format: cell-based; conditions: Staphylococcus aureus, 24 h; for pIC50: read-out: IC50 for quorum sensing inhibitory activity; for IC90: read-out: IC90 for quorum sensing inhibitory activity
Experimental: as §2

[7] = test system: agr activity, AH1872 (agr IV); assay: microbe, parasite or virus in culture; format: cell-based; conditions: Staphylococcus aureus, 24 h; for pIC50: read-out: IC50 for quorum sensing inhibitory activity
Experimental: as §2

[8] = test system: all S. aureus accessory gene regulator (agr) alleles; assay: microbe, parasite or virus in culture; format: cell-based; conditions: Staphylococcus aureus, read-out: IC50 values for quorum sensing inhibition, range over all four agr types
Experimental: as §2

S. aureus UAMS-1 biofilm = assay: Biofilm formation, human plasma protein-coated microtiter assay; format: cell-based, Staphylococcus aureus; conditions: crystal violet; for concentrations that reduced biofilm: for 2 and 3 bacterial growth also reduced
Experimental: All compounds were examined (2–281 μM) for impact on S. aureus biofilm formation using a human plasma protein-coated assay as previously described[49],[51],[52]. Additionally, to monitor for any growth impact in this assay, the optical density of planktonic cells in the biofilm wells was calculated by transferring the supernatant to a new 96-well plate and reading the OD600nm in a BioTek plate reader. S. aureus isolate UAMS-1 was used for the biofilm assay, and its isogenic sarA mutant (UAMS-929), which has a biofilm deficient phenotype, served as a positive control. All tests were performed in triplicate and repeated using a new stock of bacteria on a separate day.

S. aureus UAMS-929 = assay: Broth microdilution growth inhibition (MIC); format: cell-based, Staphylococcus aureus; conditions: for pIC50: UAMS929, read-out: IC50 (growth)
Experimental: as §1

S. aureus NRS249 (agr I) = assay: Broth microdilution growth inhibition (MIC); format: cell-based, Staphylococcus aureus; conditions: ND = not detected at 4–563 μM; for pIC50: ≥50% growth inhibition; for MIC: ≥90% growth inhibition
Experimental: as §1

MRSA (LAC, USA300) = assay: Murine model of MRSA skin infection (dermonecrosis); format: in vivo; conditions: BALB/c mice, intradermal, 1×10^8 CFU LAC with single 50 µg dose at time of infection; vs DMSO vehicle
Description: A previously described murine model of MRSA skin infection was used to determine the efficacy of each Schinus compound as an anti-infective[25]. All animal experiments described herein were approved by and conducted in accordance with the recommendations of the Animal Care and Use Committee at the University of Colorado Anschutz Medical Campus (IACUC protocol number 117217). One day prior to inoculation, the abdominal hair of 8 week old female BALB/c mice was shaved and chemically removed with topical application of Nair for 1 minute. LAC (USA300, AH1263) was grown in TSB media overnight at 37 °C in a shaking incubator (200 rpm). Overnight LAC culture was diluted 1:100 in fresh TSB media and allowed to grow to early log phase (~2 hr to OD600nm 0.5). Cells were washed in sterile PBS and resuspended to achieve an inoculum of 1×10^8 CFU. 50 μL inoculum suspensions containing 1×10^8 CFU LAC and 50 μg of each compound 1-3 (diluted in DMSO) or DMSO vehicle control were injected intradermally into the abdominal skin of each BALB/c mouse. Baseline body weights for the mice were taken prior to injection and each day following. For determination of lesion size, digital photos of skin lesions were taken with an iPhone camera and analyzed with ImageJ software for Mac. Inoculum CFU was verified by serial dilution, plating, and colony counting after overnight incubation of the plate.

[9] = Staphylococcus aureus, UAMS1, ≥90% growth inhibition
[10] = AH1263, LAC (agr I), ≥90% growth inhibition, ND = not detected at test range 4–563 μM
[11] = UAMS-929, ≥90% growth inhibition, ND = not detected at 4–563 μM

CC1(C)CCC2(C(=O)O)CCC3(C)C(=CCC4C5(C)CCC(=O)C(C)(C)C5CCC43C)C2C1 (stereo not drawn) [Compound 1, 3-oxo-olean-12-en-28-oic acid]
pIC50 [1]: 3.85 | pIC50 ([2]; Staphylococcus aureus): 3.85 | MIC ([2]; Staphylococcus aureus): 281 µM (≈ 128 µg/mL) | growth inhibition ([2]; at up to 80 µM): ~ 15% | pIC50 (S. aureus UAMS-1; Staphylococcus aureus): < 3.25 | MIC (S. aureus UAMS-1; [9]): > 563 µM | MIC [3, 10]: > 563 µM | pIC50 [4]: 5.40 | IC90 [4]: 70 µM | pIC50 [5]: 4.74 | pIC50 [6]: 4.15 | IC90 [6]: 281 µM | pIC50 [7]: 4.46 | pIC50 [8]: 4.15 to 5.40 | concentrations that increased biofilm formation (S. aureus UAMS-1 biofilm): 2 to 70 µM | concentrations that reduced biofilm (S. aureus UAMS-1 biofilm): 141 to 281 µM

CC(=CCCC(C)C1CCC2(C)C3=CCC4C(C)(C)C(=O)CCC4(C)C3CCC12C)C(=O)O (stereo not drawn) [Compound 2, 3-oxotirucalla-7,24Z-dien-26-oic acid]
pIC50 [1]: 4.15 | pIC50 (S. aureus UAMS-1; Staphylococcus aureus): 4.46 | MIC (S. aureus UAMS-1; [9]): 70 µM (≈ 31.8 µg/mL) | MIC (S. aureus UAMS-1; ≥90% growth inhibition): 70 µM (≈ 31.8 µg/mL) | MIC [3, 10]: 563 µM (≈ 256 µg/mL) | MIC ([3]; Staphylococcus aureus): 563 µM (≈ 256 µg/mL) | pIC50 ([3]; Staphylococcus aureus): 3.85 | MIC (S. aureus UAMS-929; Staphylococcus aureus, UAMS929): 70 µM (≈ 31.8 µg/mL) | pIC50 (S. aureus UAMS-929; Staphylococcus aureus): 4.46 | MIC (S. aureus UAMS-929; [11]): 70 µM (≈ 31.8 µg/mL) | pIC50 (S. aureus NRS249 (agr I); Staphylococcus aureus): 5.05 | MIC (S. aureus NRS249 (agr I); Staphylococcus aureus): 18 µM (≈ 8.18 µg/mL) | MIC (S. aureus NRS249 (agr I)): 18 µM (≈ 8.18 µg/mL) | dermonecrotic lesion / skin damage (MRSA (LAC, USA300)): reduced the dermonecrotic lesion area to nearly undetectable levels; also recorded: decreased MRSA-associated tissue damage to the limit of detection | pIC50 [4]: 5.70 | IC90 [4]: 281 µM | pIC50 [5]: 5.40 | pIC50 [6]: 5.05 | IC90 [6]: 281 µM | pIC50 [7]: 5.05 | pIC50 [8]: 5.05 to 5.70 | concentrations that increased biofilm formation (S. aureus UAMS-1 biofilm): 2 to 16 µM | concentrations that reduced biofilm (S. aureus UAMS-1 biofilm): ≥ 35 µM

CC(=CCCC(C)C1CCC2(C)C3=CCC4C(C)(C)C(O)CCC4(C)C3CCC12C)C(=O)O (stereo not drawn) [Compound 3, 3α-hydroxytirucalla-7,24Z-dien-26-oic acid]
pIC50 [1]: 4.15 | pIC50 ([2]; Staphylococcus aureus): 5.05 | MIC ([2]; Staphylococcus aureus): 18 µM (≈ 8.22 µg/mL) | MIC [2]: 18 µM (≈ 8.22 µg/mL) | pIC50 (S. aureus UAMS-1; Staphylococcus aureus): 4.46 | MIC (S. aureus UAMS-1; [9]): 70 µM (≈ 32 µg/mL) | MIC (S. aureus UAMS-1; ≥90% growth inhibition): 70 µM (≈ 32 µg/mL) | MIC ([3]; Staphylococcus aureus): 141 µM (≈ 64.4 µg/mL) | pIC50 ([3]; Staphylococcus aureus): 4.46 | MIC (S. aureus UAMS-929; Staphylococcus aureus, UAMS929): 70 µM (≈ 32 µg/mL) | pIC50 (S. aureus UAMS-929; Staphylococcus aureus): 4.46 | MIC (S. aureus UAMS-929; [11]): 70 µM (≈ 32 µg/mL) | pIC50 (S. aureus NRS249 (agr I); Staphylococcus aureus): 4.74 | MIC (S. aureus NRS249 (agr I); Staphylococcus aureus): 281 µM (≈ 128 µg/mL) | pIC50 [4]: 5.05 | IC90 [4]: 281 µM | pIC50 [5]: 5.40 | pIC50 [6]: 5.05 | IC90 [6]: 18 µM | pIC50 [7]: 5.05 | IC90 ([7]; read-out: IC90 for quorum sensing inhibitory activity): 281 µM | pIC50 [8]: 5.05 to 5.40 | concentrations that increased biofilm formation (S. aureus UAMS-1 biofilm): 2 to 16 µM | concentrations that reduced biofilm (S. aureus UAMS-1 biofilm): ≥ 35 µM

Source: paper PMC7229044, “Triterpenoid acids isolated from Schinus terebinthifolia fruits reduce Staphylococcus aureus virulence and abate dermonecrosis” (Scientific Reports, 2020)
